Assay results as given in ChEMBL document CHEMBL5212743, “Selectivity Literature for EUbOPEN Chemogenomics Library wave 3” (2023).

Tests used:
[1] = molecular target: Activin receptor type-1 (Homo sapiens, UniProt Q04771); assay: Selectivity interaction (KinomeScan (DiscoverX, competition-binding assay)) EUB0000207b ACVR1
[2] = molecular target: T1, 5-hydroxytryptamine receptor 2B (Homo sapiens, UniProt P41595); assay: (§1) Selectivity interaction (Enzyme panel (kinases, GPCRs, ion channels, transporters)) EUB0000197b HTR2B
[3] = molecular target: T1, 5-hydroxytryptamine receptor 2B; assay: as §1; details: at 10 µM
[4] = molecular target: Serine/threonine-protein kinase BRSK1 (Homo sapiens) (UniProt Q8TDC3); assay: Selectivity interaction (Enzyme panel (kinases, GPCRs, ion channels, transporters)) EUB0000197b BRSK1; details: at 10 µM
[5] = molecular target: Protein N-lysine methyltransferase METTL21A (Homo sapiens) (UniProt Q8WXB1); assay: Selectivity interaction (Methyltransferase panel) EUB0000197b METTL21A
Sequence of Protein N-lysine methyltransferase METTL21A (Homo sapiens) (Q8WXB1 whole entry): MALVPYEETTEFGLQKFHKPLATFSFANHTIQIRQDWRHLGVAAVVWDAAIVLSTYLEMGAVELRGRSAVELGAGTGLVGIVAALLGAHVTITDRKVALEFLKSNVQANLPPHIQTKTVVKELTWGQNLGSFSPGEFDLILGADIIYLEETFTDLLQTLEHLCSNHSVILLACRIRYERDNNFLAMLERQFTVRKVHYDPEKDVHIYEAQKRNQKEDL

[6] = molecular target: cAMP-dependent protein kinase catalytic subunit PRKX (Homo sapiens) (UniProt P51817); assay: Selectivity interaction (Enzyme panel (kinases, GPCRs, ion channels, transporters)) EUB0000197b PRKX; details: at 10 µM
[7] = molecular target: cGMP-dependent protein kinase 2 (Homo sapiens) (UniProt Q13237); assay: Selectivity interaction (Enzyme panel (kinases, GPCRs, ion channels, transporters)) EUB0000197b PRKG2; details: at 10 µM
[8] = molecular target: Ribosomal protein S6 kinase alpha-4 (Homo sapiens) (UniProt O75676); assay: Selectivity interaction (Enzyme panel (kinases, GPCRs, ion channels, transporters)) EUB0000197b RPS6KA4; details: at 10 µM
[9] = molecular target: Mitogen-activated protein kinase kinase kinase 12 (Homo sapiens) (UniProt Q12852); assay: Selectivity interaction (Enzyme panel (kinases, GPCRs, ion channels, transporters)) EUB0000197b DLK1; details: at 10 µM
[10] = molecular target: T2, Alpha-1A adrenergic receptor (Homo sapiens) (UniProt P35348); assay: Selectivity interaction (Receptor panel (Ricerca)) EUB0000216b ADRA1A; details: at 1 µM
T2 sequence (whole entry): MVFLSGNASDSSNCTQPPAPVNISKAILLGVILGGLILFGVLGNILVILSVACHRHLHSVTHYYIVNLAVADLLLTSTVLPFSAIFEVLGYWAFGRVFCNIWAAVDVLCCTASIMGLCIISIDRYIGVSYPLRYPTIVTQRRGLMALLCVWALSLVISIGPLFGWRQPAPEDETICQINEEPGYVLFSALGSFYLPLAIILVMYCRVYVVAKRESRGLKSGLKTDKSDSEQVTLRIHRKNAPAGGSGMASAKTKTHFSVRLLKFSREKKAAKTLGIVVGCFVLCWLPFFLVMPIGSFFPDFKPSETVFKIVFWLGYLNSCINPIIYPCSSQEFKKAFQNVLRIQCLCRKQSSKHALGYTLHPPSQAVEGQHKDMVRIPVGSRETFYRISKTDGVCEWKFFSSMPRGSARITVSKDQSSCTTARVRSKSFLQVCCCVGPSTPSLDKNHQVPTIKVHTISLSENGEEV

[11] = molecular target: T3, Protein arginine N-methyltransferase 5 (Homo sapiens, UniProt O14744); assay: Selectivity interaction (Methyltransferase panel (radioactive enzyme assay)) EUB0000216b PRMT5
[12] = molecular target: T4, Histone-lysine N-methyltransferase SETD7 (Homo sapiens, UniProt Q8WTS6); assay: Selectivity interaction (Methyltransferase panel (radioactive enzyme assay)) EUB0000216b SETD7
T4 sequence (Q8WTS6 whole entry): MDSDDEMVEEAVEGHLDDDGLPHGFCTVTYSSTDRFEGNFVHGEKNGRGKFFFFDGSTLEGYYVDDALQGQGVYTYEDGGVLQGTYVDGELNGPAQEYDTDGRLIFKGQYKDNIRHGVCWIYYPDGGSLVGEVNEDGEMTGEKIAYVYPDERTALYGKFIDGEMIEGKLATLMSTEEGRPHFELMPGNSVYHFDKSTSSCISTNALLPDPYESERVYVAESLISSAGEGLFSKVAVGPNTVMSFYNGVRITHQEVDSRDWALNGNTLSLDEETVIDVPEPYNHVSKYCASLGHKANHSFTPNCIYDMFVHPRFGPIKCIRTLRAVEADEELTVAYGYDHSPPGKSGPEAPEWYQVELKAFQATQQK

[13] = molecular target: T5, Histone-lysine N-methyltransferase 2A (Homo sapiens, UniProt Q03164); assay: Selectivity interaction (Methyltransferase panel (radioactive enzyme assay)) EUB0000216b MLL
T5 sequence (Q03164 1-2718 limits assumed): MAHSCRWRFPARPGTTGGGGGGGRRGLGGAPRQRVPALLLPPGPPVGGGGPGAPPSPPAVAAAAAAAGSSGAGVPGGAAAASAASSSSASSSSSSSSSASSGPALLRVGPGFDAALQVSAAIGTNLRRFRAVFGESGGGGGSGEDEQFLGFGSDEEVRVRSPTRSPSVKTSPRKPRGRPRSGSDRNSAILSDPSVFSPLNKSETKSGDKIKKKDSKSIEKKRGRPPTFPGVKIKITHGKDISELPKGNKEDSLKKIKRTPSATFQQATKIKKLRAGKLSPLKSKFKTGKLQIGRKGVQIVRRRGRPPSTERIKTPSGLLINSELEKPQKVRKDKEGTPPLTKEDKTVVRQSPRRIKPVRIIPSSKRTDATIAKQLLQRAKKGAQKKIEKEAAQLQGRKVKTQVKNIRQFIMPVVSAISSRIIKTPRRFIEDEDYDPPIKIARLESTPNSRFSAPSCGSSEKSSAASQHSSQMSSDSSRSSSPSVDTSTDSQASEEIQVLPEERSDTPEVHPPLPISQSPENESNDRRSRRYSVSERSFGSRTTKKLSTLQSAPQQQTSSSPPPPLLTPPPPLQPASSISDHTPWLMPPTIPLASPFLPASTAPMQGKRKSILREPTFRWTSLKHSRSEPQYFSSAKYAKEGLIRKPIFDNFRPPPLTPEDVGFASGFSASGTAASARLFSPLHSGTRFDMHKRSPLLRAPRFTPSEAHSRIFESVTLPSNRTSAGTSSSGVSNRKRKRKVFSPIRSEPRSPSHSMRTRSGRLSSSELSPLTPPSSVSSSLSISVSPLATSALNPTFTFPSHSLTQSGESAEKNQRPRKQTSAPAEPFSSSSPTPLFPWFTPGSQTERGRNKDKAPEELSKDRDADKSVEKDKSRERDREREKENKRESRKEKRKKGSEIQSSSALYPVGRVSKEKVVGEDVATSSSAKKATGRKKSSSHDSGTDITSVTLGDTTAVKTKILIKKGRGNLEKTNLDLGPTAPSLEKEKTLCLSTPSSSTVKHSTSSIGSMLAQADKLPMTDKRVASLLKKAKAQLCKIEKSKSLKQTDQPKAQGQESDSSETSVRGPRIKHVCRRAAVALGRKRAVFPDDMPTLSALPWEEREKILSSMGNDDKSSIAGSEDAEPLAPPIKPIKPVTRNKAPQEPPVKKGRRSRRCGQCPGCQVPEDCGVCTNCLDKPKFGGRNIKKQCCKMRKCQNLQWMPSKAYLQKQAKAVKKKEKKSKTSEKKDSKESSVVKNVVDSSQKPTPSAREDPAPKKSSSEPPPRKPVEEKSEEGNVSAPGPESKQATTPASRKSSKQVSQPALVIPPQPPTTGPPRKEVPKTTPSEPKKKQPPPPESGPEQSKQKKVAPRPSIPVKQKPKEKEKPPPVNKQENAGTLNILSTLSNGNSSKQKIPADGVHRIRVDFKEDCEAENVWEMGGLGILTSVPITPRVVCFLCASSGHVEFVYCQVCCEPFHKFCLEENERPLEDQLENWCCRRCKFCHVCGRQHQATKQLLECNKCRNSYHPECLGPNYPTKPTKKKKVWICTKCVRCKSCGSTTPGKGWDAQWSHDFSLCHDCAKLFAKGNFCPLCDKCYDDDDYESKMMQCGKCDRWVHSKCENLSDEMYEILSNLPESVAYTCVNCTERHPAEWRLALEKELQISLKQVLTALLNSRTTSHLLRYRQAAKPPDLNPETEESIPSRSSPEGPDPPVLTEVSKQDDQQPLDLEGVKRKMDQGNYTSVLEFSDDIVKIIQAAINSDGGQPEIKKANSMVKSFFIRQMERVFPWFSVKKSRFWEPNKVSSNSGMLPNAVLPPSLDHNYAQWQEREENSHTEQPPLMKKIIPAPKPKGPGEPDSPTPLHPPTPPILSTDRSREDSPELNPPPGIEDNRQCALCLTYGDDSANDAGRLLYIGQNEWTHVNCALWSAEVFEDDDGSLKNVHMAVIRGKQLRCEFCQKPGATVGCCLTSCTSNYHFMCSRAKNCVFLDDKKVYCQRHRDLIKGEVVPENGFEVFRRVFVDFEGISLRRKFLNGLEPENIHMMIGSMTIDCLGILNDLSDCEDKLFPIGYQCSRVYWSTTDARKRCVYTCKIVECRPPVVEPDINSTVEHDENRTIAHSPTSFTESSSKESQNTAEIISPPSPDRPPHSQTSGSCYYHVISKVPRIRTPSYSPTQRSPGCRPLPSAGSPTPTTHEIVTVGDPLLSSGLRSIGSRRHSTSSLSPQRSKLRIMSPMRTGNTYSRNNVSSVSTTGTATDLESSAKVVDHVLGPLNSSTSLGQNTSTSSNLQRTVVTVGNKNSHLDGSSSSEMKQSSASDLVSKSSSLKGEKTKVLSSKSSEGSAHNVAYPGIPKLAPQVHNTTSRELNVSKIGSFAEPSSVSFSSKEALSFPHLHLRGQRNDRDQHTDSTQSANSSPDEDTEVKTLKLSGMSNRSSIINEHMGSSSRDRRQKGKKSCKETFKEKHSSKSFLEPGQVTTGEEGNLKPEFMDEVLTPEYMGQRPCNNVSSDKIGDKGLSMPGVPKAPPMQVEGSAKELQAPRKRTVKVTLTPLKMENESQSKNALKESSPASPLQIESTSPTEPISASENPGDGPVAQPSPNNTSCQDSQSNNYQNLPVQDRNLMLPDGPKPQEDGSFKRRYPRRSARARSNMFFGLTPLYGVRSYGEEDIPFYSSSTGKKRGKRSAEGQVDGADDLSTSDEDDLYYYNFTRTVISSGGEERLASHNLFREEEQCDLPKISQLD
T5 sequence (Q03164 2719-3969 limits assumed): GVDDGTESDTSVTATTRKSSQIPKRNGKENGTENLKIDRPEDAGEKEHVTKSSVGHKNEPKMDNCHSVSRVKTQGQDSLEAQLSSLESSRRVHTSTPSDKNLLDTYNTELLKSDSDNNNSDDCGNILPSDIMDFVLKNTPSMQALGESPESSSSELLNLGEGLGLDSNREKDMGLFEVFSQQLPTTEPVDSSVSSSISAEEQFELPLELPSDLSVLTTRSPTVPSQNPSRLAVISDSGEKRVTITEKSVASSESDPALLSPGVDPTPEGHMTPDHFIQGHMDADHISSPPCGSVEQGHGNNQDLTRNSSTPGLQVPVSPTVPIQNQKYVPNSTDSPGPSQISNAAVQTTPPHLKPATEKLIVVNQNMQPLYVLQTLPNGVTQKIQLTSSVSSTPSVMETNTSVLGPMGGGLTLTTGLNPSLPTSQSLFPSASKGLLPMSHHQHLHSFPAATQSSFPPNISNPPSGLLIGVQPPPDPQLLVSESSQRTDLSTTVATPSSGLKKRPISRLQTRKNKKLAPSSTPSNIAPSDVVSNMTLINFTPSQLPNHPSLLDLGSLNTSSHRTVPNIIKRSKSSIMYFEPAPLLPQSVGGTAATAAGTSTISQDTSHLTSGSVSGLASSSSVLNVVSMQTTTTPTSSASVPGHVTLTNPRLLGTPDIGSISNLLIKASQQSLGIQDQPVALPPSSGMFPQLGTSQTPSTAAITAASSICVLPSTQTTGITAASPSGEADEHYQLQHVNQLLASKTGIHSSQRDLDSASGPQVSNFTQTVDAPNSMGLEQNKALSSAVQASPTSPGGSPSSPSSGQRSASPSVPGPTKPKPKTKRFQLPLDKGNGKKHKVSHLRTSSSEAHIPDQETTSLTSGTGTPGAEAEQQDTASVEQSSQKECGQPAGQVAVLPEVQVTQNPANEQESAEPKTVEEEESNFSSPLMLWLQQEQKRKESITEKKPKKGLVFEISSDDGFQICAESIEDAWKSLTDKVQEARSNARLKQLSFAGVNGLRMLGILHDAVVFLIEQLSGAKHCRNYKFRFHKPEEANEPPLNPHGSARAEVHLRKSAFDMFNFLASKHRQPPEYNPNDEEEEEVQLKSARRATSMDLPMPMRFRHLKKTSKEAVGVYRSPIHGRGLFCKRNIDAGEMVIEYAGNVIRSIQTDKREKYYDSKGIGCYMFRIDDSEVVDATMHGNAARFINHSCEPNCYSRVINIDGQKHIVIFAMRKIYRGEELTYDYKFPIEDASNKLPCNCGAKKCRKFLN

[14] = molecular target: T6, Histone-lysine N-methyltransferase EHMT1 (Homo sapiens, UniProt Q9H9B1); assay: Selectivity interaction (Methyltransferase panel (radioactive enzyme assay)) EUB0000216b EHMT1
[15] = molecular target: T7, Histone-lysine N-methyltransferase EHMT2 (Homo sapiens, UniProt Q96KQ7); assay: Selectivity interaction (Methyltransferase panel (radioactive enzyme assay)) EUB0000216b EHMT2
[16] = molecular target: T8, Histone-lysine N-methyltransferase EZH2 (Homo sapiens, UniProt Q15910); assay: Selectivity interaction (Methyltransferase panel (radioactive enzyme assay)) EUB0000216b EZH2
[17] = molecular target: T9, Protein arginine N-methyltransferase 3 (Homo sapiens, UniProt O60678); assay: Selectivity interaction (Methyltransferase panel (radioactive enzyme assay)) EUB0000216b PRMT3
T9 sequence (O60678 whole entry): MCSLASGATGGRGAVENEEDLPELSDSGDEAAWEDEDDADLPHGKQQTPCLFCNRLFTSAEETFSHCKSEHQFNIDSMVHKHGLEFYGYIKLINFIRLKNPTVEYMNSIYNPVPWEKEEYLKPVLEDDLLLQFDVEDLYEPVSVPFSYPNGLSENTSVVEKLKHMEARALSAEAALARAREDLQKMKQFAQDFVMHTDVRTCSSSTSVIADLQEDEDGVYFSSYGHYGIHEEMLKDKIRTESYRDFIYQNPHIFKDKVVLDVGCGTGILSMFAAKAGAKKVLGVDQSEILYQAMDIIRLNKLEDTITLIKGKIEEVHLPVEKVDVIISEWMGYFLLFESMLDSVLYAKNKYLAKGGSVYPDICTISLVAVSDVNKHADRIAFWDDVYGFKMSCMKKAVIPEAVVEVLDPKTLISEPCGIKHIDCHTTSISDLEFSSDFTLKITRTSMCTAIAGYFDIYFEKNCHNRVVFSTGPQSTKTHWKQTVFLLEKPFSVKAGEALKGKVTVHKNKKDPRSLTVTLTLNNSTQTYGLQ

[18] = molecular target: T10, N-lysine methyltransferase KMT5A (Homo sapiens, UniProt Q9NQR1); assay: Selectivity interaction (Methyltransferase panel (radioactive enzyme assay)) EUB0000216b SETD8
T10 sequence (Q9NQR1 whole entry): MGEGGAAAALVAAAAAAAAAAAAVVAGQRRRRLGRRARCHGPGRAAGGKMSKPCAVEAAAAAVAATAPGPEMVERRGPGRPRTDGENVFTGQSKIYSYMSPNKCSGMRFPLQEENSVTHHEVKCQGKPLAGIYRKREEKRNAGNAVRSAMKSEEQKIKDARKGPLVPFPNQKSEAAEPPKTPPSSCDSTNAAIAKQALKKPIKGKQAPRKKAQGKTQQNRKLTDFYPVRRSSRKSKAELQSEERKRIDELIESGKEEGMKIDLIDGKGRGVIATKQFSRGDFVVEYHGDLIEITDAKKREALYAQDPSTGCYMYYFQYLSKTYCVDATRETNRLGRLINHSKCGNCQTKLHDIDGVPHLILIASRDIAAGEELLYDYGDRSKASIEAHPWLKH

[19] = molecular target: T11, Histone-lysine N-methyltransferase SETDB1 (Homo sapiens, UniProt Q15047); assay: Selectivity interaction (Methyltransferase panel (radioactive enzyme assay)) EUB0000216b SETDB1
[20] = molecular target: T12, Histone-lysine N-methyltransferase SUV39H2 (Homo sapiens, UniProt Q9H5I1); assay: Selectivity interaction (Methyltransferase panel (radioactive enzyme assay)) EUB0000216b SUV39H2
T12 sequence (Q9H5I1 whole entry): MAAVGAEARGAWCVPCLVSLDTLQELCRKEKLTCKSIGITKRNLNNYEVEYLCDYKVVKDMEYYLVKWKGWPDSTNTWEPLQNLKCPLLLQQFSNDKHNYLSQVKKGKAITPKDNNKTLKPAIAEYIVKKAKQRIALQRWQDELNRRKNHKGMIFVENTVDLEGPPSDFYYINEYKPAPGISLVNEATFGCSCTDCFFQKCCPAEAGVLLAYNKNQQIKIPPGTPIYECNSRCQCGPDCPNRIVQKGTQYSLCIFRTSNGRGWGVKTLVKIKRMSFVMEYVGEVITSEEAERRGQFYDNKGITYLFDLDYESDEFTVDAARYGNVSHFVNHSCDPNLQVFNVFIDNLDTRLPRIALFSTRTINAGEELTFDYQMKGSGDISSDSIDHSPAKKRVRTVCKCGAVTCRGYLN

[21] = molecular target: T13, Histone-lysine N-methyltransferase KMT5C (Homo sapiens, UniProt Q86Y97); assay: Selectivity interaction (Methyltransferase panel (radioactive enzyme assay)) EUB0000216b SUV420H2
[22] = molecular target: Adenosine receptor A2b (Homo sapiens, UniProt P29275); assay: Selectivity interaction (Enzyme panel (ion channels, GPCRs, other targets)) EUB0000196bCl ADORA2B
[23] = molecular target: Kappa-type opioid receptor (Homo sapiens, UniProt P41145); assay: Selectivity interaction (Enzyme panel (ion channels, GPCRs, other targets)) EUB0000196bCl OPRK1
[24] = molecular target: T3, Protein arginine N-methyltransferase 5; assay: Selectivity interaction (Methyltransferase panel) EUB0000196bCl PRMT5
[25] = molecular target: T4, Histone-lysine N-methyltransferase SETD7; assay: Selectivity interaction (ITC) EUB0000196bCl SETD7
[26] = molecular target: DNA (cytosine-5)-methyltransferase 1 (Homo sapiens, UniProt P26358); assay: Selectivity interaction (Methyltransferase panel) EUB0000196bCl DNMT1
[27] = molecular target: N-lysine methyltransferase SMYD2 (Homo sapiens, UniProt Q9NRG4); assay: Selectivity interaction (Methyltransferase panel) EUB0000196bCl SMYD2
[28] = molecular target: Bombesin receptor subtype-3 (Homo sapiens, UniProt P32247); assay: Selectivity interaction (Enzyme panel (ion channels, GPCRs, other targets)) EUB0000196bCl BRS3
[29] = molecular target: T5, Histone-lysine N-methyltransferase 2A; assay: Selectivity interaction (Methyltransferase panel) EUB0000196bCl MLL
[30] = molecular target: Histone-lysine N-methyltransferase, H3 lysine-79 specific (Homo sapiens, UniProt Q8TEK3); assay: Selectivity interaction (Methyltransferase panel) EUB0000196bCl DOT1L
[31] = molecular target: T6, Histone-lysine N-methyltransferase EHMT1; assay: Selectivity interaction (Methyltransferase panel) EUB0000196bCl EHMT1
[32] = molecular target: T7, Histone-lysine N-methyltransferase EHMT2; assay: Selectivity interaction (Methyltransferase panel) EUB0000196bCl EHMT2
[33] = molecular target: T14, Histone-lysine N-methyltransferase EZH1 (Homo sapiens, UniProt Q92800); assay: Selectivity interaction (Methyltransferase panel) EUB0000196bCl EZH1
T14 sequence (Q92800 whole entry): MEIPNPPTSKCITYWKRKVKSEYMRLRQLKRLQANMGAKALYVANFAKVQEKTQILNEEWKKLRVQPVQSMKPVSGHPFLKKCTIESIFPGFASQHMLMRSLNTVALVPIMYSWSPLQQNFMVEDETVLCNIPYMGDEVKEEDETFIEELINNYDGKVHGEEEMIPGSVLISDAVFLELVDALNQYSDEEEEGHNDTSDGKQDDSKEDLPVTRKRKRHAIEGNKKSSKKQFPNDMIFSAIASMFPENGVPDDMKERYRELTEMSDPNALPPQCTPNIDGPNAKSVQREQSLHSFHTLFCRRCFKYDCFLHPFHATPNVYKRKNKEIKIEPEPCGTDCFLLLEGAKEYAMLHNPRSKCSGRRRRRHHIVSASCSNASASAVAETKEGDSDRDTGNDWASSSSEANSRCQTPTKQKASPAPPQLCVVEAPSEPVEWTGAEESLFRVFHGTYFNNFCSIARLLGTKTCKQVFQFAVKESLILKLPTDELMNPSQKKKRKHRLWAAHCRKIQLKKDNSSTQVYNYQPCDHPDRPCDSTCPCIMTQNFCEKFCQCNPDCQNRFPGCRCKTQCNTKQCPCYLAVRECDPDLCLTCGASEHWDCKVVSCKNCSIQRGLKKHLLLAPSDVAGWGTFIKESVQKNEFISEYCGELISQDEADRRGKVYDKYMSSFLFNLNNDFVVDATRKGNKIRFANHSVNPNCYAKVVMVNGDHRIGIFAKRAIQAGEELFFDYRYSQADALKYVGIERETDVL

[34] = molecular target: T8, Histone-lysine N-methyltransferase EZH2; assay: Selectivity interaction (Methyltransferase panel) EUB0000196bCl EZH2
[35] = molecular target: Histone-lysine N-methyltransferase NSD2 (Homo sapiens, UniProt O96028); assay: Selectivity interaction (Methyltransferase panel) EUB0000196bCl NSD2
[36] = molecular target: Protein arginine N-methyltransferase 1 (Homo sapiens, UniProt Q99873); assay: Selectivity interaction (Methyltransferase panel) EUB0000196bCl PRMT1
[37] = molecular target: T9, Protein arginine N-methyltransferase 3; assay: Selectivity interaction (Methyltransferase panel) EUB0000196bCl PRMT3
[38] = molecular target: Protein arginine N-methyltransferase 8 (Homo sapiens, UniProt Q9NR22); assay: Selectivity interaction (Methyltransferase panel) EUB0000196bCl PRMT8
[39] = molecular target: Histone-lysine N-methyltransferase SETD2 (Homo sapiens, UniProt Q9BYW2); assay: Selectivity interaction (Methyltransferase panel) EUB0000196bCl SETD2
[40] = molecular target: T10, N-lysine methyltransferase KMT5A; assay: Selectivity interaction (Methyltransferase panel) EUB0000196bCl SETD8
[41] = molecular target: T11, Histone-lysine N-methyltransferase SETDB1; assay: Selectivity interaction (Methyltransferase panel) EUB0000196bCl SETDB1
[42] = molecular target: T12, Histone-lysine N-methyltransferase SUV39H2; assay: Selectivity interaction (Methyltransferase panel) EUB0000196bCl SUV39H2
[43] = molecular target: Histone-lysine N-methyltransferase KMT5B (Homo sapiens, UniProt Q4FZB7); assay: Selectivity interaction (Methyltransferase panel) EUB0000196bCl SUV420H1
[44] = molecular target: T13, Histone-lysine N-methyltransferase KMT5C; assay: Selectivity interaction (Methyltransferase panel) EUB0000196bCl SUV420H2
[45] = molecular target: Motilin receptor (Homo sapiens) (UniProt O43193); assay: Selectivity interaction (Enzyme panel (ion channels, GPCRs, other targets)) EUB0000196bCl MLN

## COc1cc(Nc2ccnc3ccc(Br)cc23)cc(OC)c1OC
[1]
  Kd: 0.98 µM

## O=C(NCC(=O)N1CCCC1)Nc1ccc2cnccc2c1
[2]
  Ki: > 15 µM
[3]
  % of control: 69%
[4]
  % of control: 56%
[5]
  % of control: 60%
[6]
  % of control: 61%
[7]
  % of control: 58%
[8]
  % of control: 55%
[9]
  % of control: 60%

## CC(C)N(CCCNC(=O)Nc1ccc(C(C)(C)C)cc1)C[C@H]1O[C@@H](n2cc(Br)c3c(N)ncnc32)[C@H](O)[C@@H]1O
[10]
  % of inhibition: 22%
[11]
  IC50: > 100 µM
[12]
  IC50: > 100 µM
[13]
  IC50: > 100 µM
[14]
  IC50: > 100 µM
[15]
  IC50: > 100 µM
[16]
  IC50: > 100 µM
[17]
  IC50: > 100 µM
[18]
  IC50: > 100 µM
[19]
  IC50: > 100 µM
[20]
  IC50: > 100 µM
[21]
  IC50: > 100 µM

## O=C([C@@H](Cc1cccc(C(F)(F)F)c1)NS(=O)(=O)c1cc(F)c2c(c1)CCNC2)N1CCCC1
[22]
  Ki: 1.3 µM
[23]
  Ki: 3.8 µM
[24]
  EC50: > 10 µM
[25]
  Kd: 0.018 µM
[26]
  EC50: > 10 µM
[27]
  EC50: > 10 µM
[28]
  Ki: 8.1 µM
[29]
  EC50: > 10 µM
[30]
  EC50: > 10 µM
[31]
  EC50: > 10 µM
[32]
  EC50: > 10 µM
[33]
  EC50: > 10 µM
[34]
  EC50: > 10 µM
[35]
  EC50: > 10 µM
[36]
  EC50: > 10 µM
[37]
  EC50: > 10 µM
[38]
  EC50: > 10 µM
[39]
  EC50: > 10 µM
[40]
  EC50: > 10 µM
[41]
  EC50: > 10 µM
[42]
  EC50: > 10 µM
[43]
  EC50: > 10 µM
[44]
  EC50: > 10 µM
[45]
  Ki: 7.2 µM
